Experimental data from US8471005B2 (Cephalon, Inc., priority 2008, dated 2013).
pIC50: −log10 of the molar value. Where two headings read alike, the source gives them in different places.

How the values were obtained:
ALK = target: T1, ALK (Homo sapiens, UniProt Q9UM73); experiment: ALK Kinase Assay (ELISA/TRF, PLC-γ substrate); format: biochemical; conditions: read-out: ALK Potency
T1 construct: host or cells: baculovirus expression system
Summary of the method: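 PLC-γ coat 10 μg/mL in TBS; ALK 30 ng/ml added to start; 37° C, 15 min; Eu-N1 PT66 antibody detection (TRF). IC50: % inhibition vs log10 [cpd], variable-slope sigmoidal fit.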

JAK2 = target: T2, JAK2 (Homo sapiens, UniProt O60674); experiment: Recombinant Human JAK2 Kinase Assay (TRF); format: biochemical; conditions: read-out: JAK2 Potency
T2 construct: host or cells: baculovirus expression system
Summary of the method: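 Baculovirus-expressed JAK2 (15 ng/ml) phosphorylated a biotinylated 15-mer peptide captured on Neutravidin, in 20 mM HEPES pH 7.2, 0.2 μM ATP, 1 mM MnCl2, 0.1% BSA, 2.5% DMSO final, 20 min at room temperature. Phosphoproduct detected by time-resolved fluorescence with Eu-N1-labelled PY100 antibody.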

[1] = ALK kinase inhibition, 1 μM ATP
[2] = JAK2 kinase inhibition, 0.2 μM ATP

T1 sequence (Q9UM73 19-1620): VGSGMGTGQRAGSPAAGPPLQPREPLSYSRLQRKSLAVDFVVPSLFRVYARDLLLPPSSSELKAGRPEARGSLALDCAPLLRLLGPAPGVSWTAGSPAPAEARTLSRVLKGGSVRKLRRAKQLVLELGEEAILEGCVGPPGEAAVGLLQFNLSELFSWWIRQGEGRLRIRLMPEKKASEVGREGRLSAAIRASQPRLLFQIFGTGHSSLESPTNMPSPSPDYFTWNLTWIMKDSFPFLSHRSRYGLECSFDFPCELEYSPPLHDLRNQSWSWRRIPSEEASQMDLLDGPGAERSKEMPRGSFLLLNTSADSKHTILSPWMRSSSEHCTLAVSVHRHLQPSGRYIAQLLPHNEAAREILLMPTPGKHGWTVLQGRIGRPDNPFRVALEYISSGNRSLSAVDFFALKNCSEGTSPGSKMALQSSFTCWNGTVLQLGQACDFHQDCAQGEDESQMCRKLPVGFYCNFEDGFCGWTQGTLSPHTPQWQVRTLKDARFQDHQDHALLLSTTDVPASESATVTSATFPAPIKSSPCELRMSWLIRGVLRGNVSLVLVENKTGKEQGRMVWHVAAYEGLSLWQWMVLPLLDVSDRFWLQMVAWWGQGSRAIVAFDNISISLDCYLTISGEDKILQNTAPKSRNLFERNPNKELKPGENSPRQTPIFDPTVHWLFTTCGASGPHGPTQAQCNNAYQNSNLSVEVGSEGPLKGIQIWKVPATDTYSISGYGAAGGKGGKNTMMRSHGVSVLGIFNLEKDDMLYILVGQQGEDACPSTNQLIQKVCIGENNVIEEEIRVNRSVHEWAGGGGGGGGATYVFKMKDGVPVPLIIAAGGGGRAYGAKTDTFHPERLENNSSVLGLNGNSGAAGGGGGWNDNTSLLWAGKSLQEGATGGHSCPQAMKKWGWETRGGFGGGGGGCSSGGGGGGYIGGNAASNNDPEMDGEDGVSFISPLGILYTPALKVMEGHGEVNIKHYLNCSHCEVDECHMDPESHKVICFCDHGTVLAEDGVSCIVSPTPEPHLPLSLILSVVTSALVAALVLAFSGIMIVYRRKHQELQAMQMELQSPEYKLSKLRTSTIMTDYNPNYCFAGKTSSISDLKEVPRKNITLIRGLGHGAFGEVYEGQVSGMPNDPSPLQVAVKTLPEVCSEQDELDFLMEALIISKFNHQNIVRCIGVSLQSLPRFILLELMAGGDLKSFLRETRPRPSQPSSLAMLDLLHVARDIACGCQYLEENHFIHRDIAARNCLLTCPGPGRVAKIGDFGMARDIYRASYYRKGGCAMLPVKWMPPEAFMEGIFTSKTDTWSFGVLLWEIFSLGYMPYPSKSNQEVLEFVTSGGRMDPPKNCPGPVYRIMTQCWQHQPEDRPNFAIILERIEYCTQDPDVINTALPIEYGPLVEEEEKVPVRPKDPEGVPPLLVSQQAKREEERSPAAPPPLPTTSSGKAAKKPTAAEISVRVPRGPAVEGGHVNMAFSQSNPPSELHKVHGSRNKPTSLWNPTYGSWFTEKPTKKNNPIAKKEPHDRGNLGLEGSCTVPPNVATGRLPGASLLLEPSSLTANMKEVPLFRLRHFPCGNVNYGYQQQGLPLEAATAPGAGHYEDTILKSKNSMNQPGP
T2 sequence (O60674 whole entry): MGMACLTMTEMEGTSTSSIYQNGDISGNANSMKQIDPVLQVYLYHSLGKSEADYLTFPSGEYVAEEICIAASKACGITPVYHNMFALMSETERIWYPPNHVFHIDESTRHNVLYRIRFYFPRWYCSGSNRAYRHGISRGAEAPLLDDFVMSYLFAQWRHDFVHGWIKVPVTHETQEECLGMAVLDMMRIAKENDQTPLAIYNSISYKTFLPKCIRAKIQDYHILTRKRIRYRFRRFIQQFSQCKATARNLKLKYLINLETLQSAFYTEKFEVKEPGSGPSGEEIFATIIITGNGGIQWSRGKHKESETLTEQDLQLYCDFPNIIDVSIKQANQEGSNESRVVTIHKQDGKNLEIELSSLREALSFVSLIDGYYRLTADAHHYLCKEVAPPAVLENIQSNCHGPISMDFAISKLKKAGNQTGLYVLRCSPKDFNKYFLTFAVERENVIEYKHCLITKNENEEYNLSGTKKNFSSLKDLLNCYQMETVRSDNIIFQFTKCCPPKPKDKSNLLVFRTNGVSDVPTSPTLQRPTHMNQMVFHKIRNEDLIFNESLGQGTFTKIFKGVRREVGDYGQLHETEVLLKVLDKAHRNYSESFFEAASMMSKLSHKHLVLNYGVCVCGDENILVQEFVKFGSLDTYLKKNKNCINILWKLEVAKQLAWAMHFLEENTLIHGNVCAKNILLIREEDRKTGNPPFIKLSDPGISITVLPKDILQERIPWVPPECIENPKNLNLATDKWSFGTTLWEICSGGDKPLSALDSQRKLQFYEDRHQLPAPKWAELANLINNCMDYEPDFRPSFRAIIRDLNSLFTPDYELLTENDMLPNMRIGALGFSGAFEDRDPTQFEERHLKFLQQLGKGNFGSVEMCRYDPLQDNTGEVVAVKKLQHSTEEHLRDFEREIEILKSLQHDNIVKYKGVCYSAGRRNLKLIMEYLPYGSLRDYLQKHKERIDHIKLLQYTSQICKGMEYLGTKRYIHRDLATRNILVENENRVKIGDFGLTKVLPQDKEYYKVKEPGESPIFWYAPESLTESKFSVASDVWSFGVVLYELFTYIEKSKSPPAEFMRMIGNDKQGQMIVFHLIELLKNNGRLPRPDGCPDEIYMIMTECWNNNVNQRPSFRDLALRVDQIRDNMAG

SMILES	pIC50 (ALK; [1])	pIC50 (JAK2; [2])	pIC50 (ALK; ALK Kinase Inhibition)	pIC50 (JAK2; JAK2 Kinase Inhibition)
CN1CCN(c2ccc(Nc3ncc4ccc(Cc5ccccc5)n4n3)cc2)CC1 [Example 1140, (7-Benzyl-pyrrolo[2,1-f][1,2,4]triazin-2-yl)-[4-(4-methyl-piperazin-1-yl)-phenyl]-amine]	> 7.00	> 7.00	–	–
O=S1(=O)CCN(Cc2ccc(-c3ccc4cnc(Nc5ccc(N6CCOCC6)cc5)nn34)cc2)CC1 [Example 1032, {7-[4-(1,1-Dioxo-1$1(6)-thiomorpholin-4-ylmethyl)-phenyl]-pyrrolo[2,1-f][1,2,4]triazin-2-yl}-(4-morpholin-4-yl-phenyl)-amine]	6.00 to 7.00	> 7.00	–	–
CN(C)S(=O)(=O)c1ccc(-c2ccc3cnc(Nc4ccc(N5CCCCC5)cc4)nn23)cc1 [Example 86, N,N-Dimethyl-4-[2-(4-piperidin-1-yl-phenylamino)-pyrrolo[2,1-f][1,2,4]triazin-7-yl]-benzenesulfonamide]	–	–	< 5.00	> 7.00
CN(c1ccccc1-c1ccc2cnc(Nc3ccc4c(cnn4CCN4CCOCC4)c3)nn12)S(C)(=O)=O [Example 1333, N-Methyl-N-(2-{2-[1-(2-morpholin-4-yl-ethyl)-1H-indazol-5-ylamino]-pyrrolo[2,1-f][1,2,4]triazin-7-yl}-phenyl)-methanesulfonamide]	6.00 to 7.00	> 7.00	–	–
COc1ccccc1-c1ccc2cnc(Nc3ccc(C4C(=O)N(C)CCN4C)cc3)nn12 (stereo not shown) [Example 1076, 3-{4-[7-(2-Methoxy-phenyl)-pyrrolo[2,1-f][1,2,4]triazin-2-ylamino]-phenyl}-1,4-dimethyl-piperazin-2-one]	5.00 to 6.00	> 7.00	–	–
COc1cc(N2CCCN(C3CCN(CCO)CC3)CC2)ccc1Nc1ncc2ccc(-c3ccccc3OC)n2n1 [Example 800, 2-[4-(4-{3-Methoxy-4-[7-(2-methoxy-phenyl)-pyrrolo[2,1-f][1,2,4]triazin-2-ylamino]-phenyl}-[1,4]diazepan-1-yl)-piperidin-1-yl]-ethanol]	> 7.00	6.00 to 7.00	–	–
COc1ccccc1-c1ccc2cnc(Nc3ccc(N4CCCC(N5CCOCC5)C4)cc3)nn12 (stereo not shown) [Example 343, [7-(2-Methoxy-phenyl)-pyrrolo[2,1-f][1,2,4]triazin-2-yl]-[4-(3-morpholin-4-yl-piperidin-1-yl)-phenyl]-amine]	–	–	> 7.00	> 7.00
Cc1ccncc1-c1ccc2cnc(Nc3ccc(N4CCOCC4)cc3)nn12 [Example 1038, [7-(4-Methyl-pyridin-3-yl)-pyrrolo[2,1-f][1,2,4]triazin-2-yl]-(4-morpholin-4-yl-phenyl)-amine]	5.00 to 6.00	> 7.00	–	–
CN1CCN(Cc2nc3cc(Nc4ncc5ccc(-c6cccc(S(C)(=O)=O)c6)n5n4)ccc3[nH]2)CC1 [Example 1538, [7-(3-Methanesulfonyl-phenyl)-pyrrolo[2,1-f][1,2,4]triazin-2-yl]-[2-(4-methyl-piperazin-1-ylmethyl)-1H-benzimidazol-5-yl]-amine]	–	–	6.00 to 7.00	> 7.00
COc1ccccc1-c1cc(C#N)c2cnc(Nc3ccc(N4CCN(C)CC4)cc3)nn12 [Example 114, 7-(2-Methoxy-phenyl)-2-[4-(4-methyl-piperazin-1-yl)-phenylamino]-pyrrolo[2,1-f][1,2,4]triazine-5-carbonitrile]	–	–	6.00 to 7.00	> 7.00
CN1CCN(c2ccc(Nc3ncc4c(-c5cccc(F)c5)ccn4n3)cc2)CC1 [Example 730, [5-(3-Fluoro-phenyl)-pyrrolo[2,1-f][1,2,4]triazin-2-yl]-[4-(4-methyl-piperazin-1-yl)-phenyl]-amine]	< 5.00	5.00 to 6.00	–	–
COc1ccc(Cl)cc1-c1ccc2cnc(Nc3ccc(N4CCCC(N5CCN(C)CC5)C4)cc3)nn12 (stereo not shown) [Example 349, [7-(5-Chloro-2-methoxy-phenyl)-pyrrolo[2,1-f][1,2,4]triazin-2-yl]-{4-[3-(4-methyl-piperazin-1-yl)-piperidin-1-yl]-phenyl}-amine]	–	–	> 7.00	> 7.00
COc1cc(C2CCN(C[C@H](O)C(F)(F)F)CC2)ccc1Nc1ncc2ccc(-c3ccccc3OC)n2n1 [Example 799, (S)-1,1,1-Trifluoro-3-(4-{3-methoxy-4-[7-(2-methoxy-phenyl)-pyrrolo[2,1-f][1,2,4]triazin-2-ylamino]-phenyl}-piperidin-1-yl)-propan-2-ol]	> 7.00	6.00 to 7.00	–	–
CN1CCN(c2ccc(Nc3ncc4ccc(C5=CCC(S(C)(=O)=O)CC5)n4n3)cc2)CC1 (stereo not shown) [Example 620, [7-(4-Methanesulfonyl-cyclohex-1-enyl)-pyrrolo[2,1-f][1,2,4]triazin-2-yl]-[4-(4-methyl-piperazin-1-yl)-phenyl]-amine]	6.00 to 7.00	> 7.00	–	–
COc1ccccc1-c1ccc2cnc(Nc3ccc(C4CCN(CC(N)=O)CC4)c(C)c3)nn12 [Example 935, 2-(4-{4-[7-(2-Methoxy-phenyl)-pyrrolo[2,1-f][1,2,4]triazin-2-ylamino]-2-methyl-phenyl}-piperidin-1-yl)-acetamide]	> 7.00	> 7.00	–	–
CN1CCN(c2ccc(Nc3ncc4ccc(-c5ccccc5)n4n3)cc2)CC1 [Example 7, [4-(4-Methyl-piperazin-1-yl)-phenyl]-(7-phenyl-pyrrolo[2,1-f][1,2,4]triazin-2-yl)-amine]	–	–	> 7.00	> 7.00
CN(Cc1cccc(-c2ccc3cnc(Nc4ccc5c(c4)NC(=O)C5(C)C)nn23)c1)S(C)(=O)=O [Example 1054, N-{3-[2-(3,3-Dimethyl-2-oxo-2,3-dihydro-1H-indol-6-ylamino)-pyrrolo[2,1-f][1,2,4]triazin-7-yl]-benzyl}-N-methyl-methanesulfonamide]	< 5.00	> 7.00	–	–
COc1ccccc1-c1ccc2cnc(Nc3ccc(C4CCNC4)cc3)nn12 (stereo not shown) [Example 1012, [7-(2-Methoxy-phenyl)-pyrrolo[2,1-f][1,2,4]triazin-2-yl]-(4-pyrrolidin-3-yl-phenyl)-amine]	> 7.00	> 7.00	–	–
CC(C)(C)NS(=O)(=O)c1cccc(-c2ccc3cnc(Nc4ccc5ncn(CCN6CCOCC6)c5c4)nn23)c1 [Example 1326, N-tert-Butyl-3-{2-[3-(2-morpholin-4-yl-ethyl)-3H-benzimidazol-5-ylamino]-pyrrolo[2,1-f][1,2,4]triazin-7-yl}-benzenesulfonamide]	6.00 to 7.00	> 7.00	–	–
COc1cc(C2CCN(CC(N)=O)CC2)ccc1Nc1ncc2ccc(-c3ncccc3OC)n2n1 [Example 1532, 2-(4-{3-Methoxy-4-[7-(3-methoxy-pyridin-2-yl)-pyrrolo[2,1-f][1,2,4]triazin-2-ylamino]-phenyl}-piperidin-1-yl)-acetamide]	–	–	5.00 to 6.00	5.00 to 6.00
CN1CCN(c2ccc(Nc3ncc4ccc(-c5ccccc5OCC#N)n4n3)cc2)CC1 [Example 1141, (2-{2-[4-(4-Methyl-piperazin-1-yl)-phenylamino]-pyrrolo[2,1-f][1,2,4]triazin-7-yl}-phenoxy)-acetonitrile]	> 7.00	> 7.00	–	–
OCC1CCN(c2ccc(Nc3ncc4ccc(-c5cccnc5)n4n3)cc2)CC1 [Example 116, {1-[4-(7-Pyridin-3-yl-pyrrolo[2,1-f][1,2,4]triazin-2-ylamino)-phenyl]-piperidin-4-yl}-methanol]	–	–	5.00 to 6.00	> 7.00
N#CCCn1cccc1-c1ccc2cnc(Nc3ccc(N4CCOCC4)cc3)nn12 [Example 1293, 3-{2-[2-(4-Morpholin-4-yl-phenylamino)-pyrrolo[2,1-f][1,2,4]triazin-7-yl]-pyrrol-1-yl}-propionitrile]	6.00 to 7.00	> 7.00	–	–
COc1ccc(-c2ccc3cnc(Nc4ccc5c(c4)CCN(CC(N)=O)C5)nn23)cn1 [Example 916, 2-{6-[7-(6-Methoxy-pyridin-3-yl)-pyrrolo[2,1-f][1,2,4]triazin-2-ylamino]-3,4-dihydro-1H-isoquinolin-2-yl}-acetamide]	< 5.00	> 7.00	–	–
COc1ccc(Cl)cc1-c1ccc2cnc(-n3cnc4cnccc43)nn12 [Example 323, 1-[7-(5-Chloro-2-methoxy-phenyl)-pyrrolo[2,1-f][1,2,4]triazin-2-yl]-1H-imidazo[4,5-c]pyridine]	–	–	5.00 to 6.00	6.00 to 7.00
COc1cc(N2CCC(N3CCOCC3)CC2)ccc1Nc1ncc2ccc(-c3ccccc3NC(C)=O)n2n1 [Example 453, N-(2-{2-[2-Methoxy-4-(4-morpholin-4-yl-piperidin-1-yl)-phenylamino]-pyrrolo[2,1-f][1,2,4]triazin-7-yl}-phenyl)-acetamide]	–	–	6.00 to 7.00	5.00 to 6.00
CN1CCN(c2ccc(Nc3ncc4ccc(-c5ccccc5OCC(=O)N(C)C)n4n3)cc2F)CC1 [Example 1404, 2-(2-{2-[3-Fluoro-4-(4-methyl-piperazin-1-yl)-phenylamino]-pyrrolo[2,1-f][1,2,4]triazin-7-yl}-phenoxy)-N,N-dimethyl-acetamide]	–	–	6.00 to 7.00	> 7.00
c1cc(N2CCOCC2)ccc1Nc1ncc2ccc(-c3ccc4c(c3)OCCO4)n2n1 [Example 5, [7-(2,3-Dihydro-benzo[1,4]dioxin-6-yl)-pyrrolo[2,1-f][1,2,4]triazin-2-yl]-(4-morpholin-4-yl-phenyl)-amine]	–	–	5.00 to 6.00	> 7.00
COc1ccccc1NCc1ccc2cnc(Nc3ccc(N4CCN(C)CC4)cc3)nn12 [Example 365, {7-[(2-Methoxy-phenylamino)-methyl]-pyrrolo[2,1-f][1,2,4]triazin-2-yl}-[4-(4-methyl-piperazin-1-yl)-phenyl]-amine]	–	–	5.00 to 6.00	> 7.00
